According to patent publication US20130071414A1, “ENGINEERED CD19-SPECIFIC T LYMPHOCYTES THAT COEXPRESS IL-15 AND AN INDUCIBLE CASPASE-9 BASED SUICIDE GENE FOR THE TREATMENT OF B-CELL MALIGNANCIES” (priority 2011, published 2013):

How the values were obtained:
[1] = tested on: iC9/CAR.19/IL-15^+ T cells expressing eGFP-FFLuc; assay: In vivo validation of the suicide gene, Raji-engrafted mice with labeled iC9/CAR.19/IL-15^+ T cells; set-up: species or system SCID mice; conditions: Raji i.v., after CID i.p.
Description: In vivo validation of the suicide gene. To evaluate the functionality of the suicide gene, mice bearing tumor cells and receiving iC9/CAR.19/IL-15^+ T cells labeled with the eGFP-FFluc gene were treated with CID ([…]) i.p. 2 to 3 doses every other day.^27 CID treatment was initiated when the T-cell bioluminescent signal was exponentially increasing, indicating active expansion of the transgenic cells. Mice were then imaged as described above.
Mice were engrafted i.v. with Raji tumor cells and then infused with eGFP-FFLuc labeled iC9/CAR.19/IL-15^+ T cells. These cells localized and expanded at the tumor site by day 14 after infusion as assessed by bioluminescence measurement (FIG. 6b).

[2] = tested on: inducible caspase-9 suicide gene in iC9/CAR.19/IL-15^+ T cells; conditions: previous observation (ref 27); cited from earlier work

## CC[C@H](C(=O)N1CCCC[C@H]1C(=O)O[C@H](CCc1ccc(OC)c(OC)c1)c1cccc(OCC(=O)NCC(CNC(=O)COc2cccc([C@@H](CCc3ccc(OC)c(OC)c3)OC(=O)[C@@H]3CCCCN3C(=O)[C@@H](CC)c3cc(OC)c(OC)c(OC)c3)c2)CN(C)C)c1)c1cc(OC)c(OC)c(OC)c1 [CID, AP20187]
[1]
  T-cell bioluminescence after administration of the CID: 1.3×10^5±3×10^4 p/s/cm^2/sr
[2]
  Fraction of cells that escape apoptosis/necrosis shortly after exposure to the dimerizer drug: < 10%
